Assay results: patent publication US20250320496A1, “MODULATION OF ABCB11 GENE TRANSCRIPTION USING ANTISENSE OLIGONUCLEOTIDES TARGETING REGULATORY RNAS” (CAMP4 Therapeutics Corporation, priority 2022, published 2025)
Strand notation (5' to 3'): a small letter for the sugar, then the base; units joined by * are phosphorothioate-linked, units joined directly phosphodiester-linked; [ ] holds rarer units or linkages, { } end groups; capitals alone tell only the bases. e = 2'-O-(2-methoxyethyl) (MOE); l = locked nucleic acid (LNA); [5mC] = 5-methylcytosine; d = 2'-deoxy (DNA)

Tested on: human ABCB11 mRNA
Assay: ASO treatment of primary human hepatocytes (PHH), ABCB11 mRNA by RT-qPCR normalized to B2M
Type: cell-based
Settings: for ABCB11 mRNA FC (5 μM ASO vs. UNT) / ABCB11 FC mRNA (5 μM ASO vs. untreated): primary human hepatocytes; for ABCB11 mRNA FC (5 μM ASO vs. UNT): normalized to untreated PHHs (UNT); for ABCB11 FC mRNA (5 μM ASO vs. untreated): 5 μM ASO with PO-modifications, normalized to untreated hepatocytes
Summary of the method: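 Plated primary human hepatocytes were treated 4 h post-thaw with ASO (e.g., 1.25–10 μM; initial screen 5 μM) in medium containing 0.3 mg/ml Matrigel for 72 hrs. Total RNA was reverse-transcribed and ABCB11 mRNA measured by Taqman RT-qPCR, normalized to B2M, with fold change versus untreated PHHs.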

CO-4021 (antisense eG*eT*e[5mC]*eT*eT*e[5mC]*eT*eT*eT*eA*eT*eA*eG*e[5mC]*eA*eA*eT*eG*e[5mC]*eT)
ABCB11 mRNA FC (5 μM ASO vs. UNT): 1.301 fold change

CO-7031 (antisense eA*eA*eA*eG*eA*eA*eT*e[5mC]*eG*e[5mC]*eT*eG*eT*eG*eG*e[5mC]*eA*eG*eT*eT)
ABCB11 mRNA FC (5 μM ASO vs. UNT): 1.212 fold change

CO-6670 (antisense eT*eA*eG*eT*eT*eT*eA*eG*eT*eT*eG*eA*e[5mC]*eT*eG*e[5mC]*eA*eG*eA*eG)
ABCB11 mRNA FC (5 μM ASO vs. UNT): 1.157 fold change

CO-7183 (antisense eG*eT*eG*eG*eA*lG*e[5mC]*eA*eA*eA*l[5mC]*eT*eA*eG*eG*l[5mC]*eA*e[5mC]*eT*eG)
ABCB11 mRNA FC (5 μM ASO vs. UNT): 1.295 fold change

CO-3998: ASO targeting the paRNA regRNA RR63 (antisense eA*e[5mC]*e[5mC]*e[5mC]*e[5mC]*e[5mC]*e[5mC]*eT*e[5mC]*eA*e[5mC]*e[5mC]*eT*eT*eG*eGeT*eT*e[5mC]*e[5mC])
upregulation of ABCB11 mRNA (PHHs, Day 3, normalized to untreated PHHs): approximately 1.5 fold | ABCB11 mRNA FC (5 μM ASO vs. UNT): 1.319 fold change

CO-7069 (e[5mC]*eA*eT*lT*eT*dA*dG*lA*dG*dA*d[5mC]*lA*dA*dA*dG*lA*eA*eT*e[5mC]*eG; antisense)
ABCB11 mRNA FC (5 μM ASO vs. UNT): 1.011 fold change

CO-11236 (antisense eG*eT*eGeGlAeGe[5mC]*eA*eA*lA*e[5mC]*eT*eA*eGlGe[5mC]eAe[5mC]*eT*eG)
ABCB11 FC mRNA (5 μM ASO vs. untreated): 1.60 fold change

CO-12754 (antisense eG*eT*eGeA*eG*eGe[5mC]*eA*eTe[5mC]*eA*eGeG*eT*eAeA*eG*eTeT*e[5mC])
ABCB11 FC mRNA (5 μM ASO vs. untreated): 1.04 fold change

CO-6982 (antisense eA*eA*eG*eA*e[5mC]*eA*eG*eA*eA*eG*eT*eG*eA*eG*eG*e[5mC]*eA*eT*e[5mC]*eA)
ABCB11 mRNA FC (5 μM ASO vs. UNT): 0.976 fold change

CO-4054 (antisense e[5mC]*eG*eT*eT*e[5mC]*eA*eT*e[5mC]*eT*eT*eT*eG*e[5mC]*eT*eT*eA*eT*eA*e[5mC]*eA)
ABCB11 mRNA FC (5 μM ASO vs. UNT): 1.269 fold change

CO-4505 (antisense eG*eA*eG*e[5mC]*eA*e[5mC]*eA*e[5mC]*eA*eT*eT*e[5mC]*eA*e[5mC]*eT*e[5mC]*e[5mC]*eA*eT*eT)
ABCB11 mRNA FC (5 μM ASO vs. UNT): 1.011 fold change

CO-6972 (antisense eA*eA*eA*eT*eG*eG*eG*eT*eG*eT*eG*eG*eA*eT*eG*eT*eA*eG*eA*eT)
ABCB11 mRNA FC (5 μM ASO vs. UNT): 1.207 fold change

CO-7178: derivative ASO with additional chemical modifications based on parent ASO CO-4529 (antisense eG*eT*eG*lG*eA*lG*e[5mC]*lA*eA*lA*e[5mC]*lT*eA*lG*eG*l[5mC]*eA*l[5mC]*eT*eG)
ABCB11 mRNA FC (5 μM ASO vs. UNT): 1.737 fold change

CO-6983 (antisense eA*eG*eA*eA*eG*eA*e[5mC]*eA*eG*eA*eA*eG*eT*eG*eA*eG*eG*e[5mC]*eA*eT)
ABCB11 mRNA FC (5 μM ASO vs. UNT): 1.065 fold change

CO-7044 (antisense eT*eT*eT*eT*eG*e[5mC]*eT*eT*eG*eG*eT*e[5mC]*eA*eA*eG*eA*eG*eG*eA*eA)
ABCB11 mRNA FC (5 μM ASO vs. UNT): 0.943 fold change

CO-7210 (eT*eT*eT*eG*eG*d[5mC]*dG*lT*dT*dA*lT*dT*dA*lA*dT*dT*l[5mC]*dT*dA*e[5mC]*eA*eG*eA*eG; antisense)
ABCB11 mRNA FC (5 μM ASO vs. UNT): 1.362 fold change

CO-3992 (antisense eT*eG*eT*eT*eT*e[5mC]*e[5mC]*eT*eA*eG*eT*eA*e[5mC]*e[5mC]*eA*eA*eG*eA*eA*eT)
ABCB11 mRNA FC (5 μM ASO vs. UNT): 1.388 fold change

CO-6975 (antisense e[5mC]*eT*eG*eA*eA*eG*eT*eG*eG*eA*eG*eG*eT*eG*eG*eT*eG*eG*eA*eA)
ABCB11 mRNA FC (5 μM ASO vs. UNT): 1.34 fold change

CO-4012 (antisense eG*eA*eA*e[5mC]*eT*eA*e[5mC]*eA*e[5mC]*e[5mC]*eG*eA*e[5mC]*eT*eT*eT*eA*eT*e[5mC]*eT)
ABCB11 mRNA FC (5 μM ASO vs. UNT): 1.15 fold change

CO-7050 (antisense eT*eT*eG*eG*eT*eT*e[5mC]*e[5mC]*e[5mC]*e[5mC]*e[5mC]*eT*eG*e[5mC]*eT*eG*eT*eG*e[5mC]*eT)
ABCB11 mRNA FC (5 μM ASO vs. UNT): 1.026 fold change

CO-4053 (antisense eG*eA*eG*e[5mC]*eT*eT*e[5mC]*eA*eT*e[5mC]*eT*eG*eG*eT*eG*eT*eG*eT*e[5mC]*e[5mC])
ABCB11 mRNA FC (5 μM ASO vs. UNT): 1.218 fold change

CO-7012 (antisense eT*eG*eT*eG*eG*dA*dT*lG*dT*dA*lG*dA*dT*lG*dA*dA*lT*dG*dG*e[5mC]*eA*eA*eG*eG)
ABCB11 mRNA FC (5 μM ASO vs. UNT): 0.985 fold change

CO-7205 (eT*eT*eG*eG*e[5mC]*dG*dT*dT*eA*dT*dT*dA*dA*eT*dT*d[5mC]*dT*eA*e[5mC]*eA*eG*eA; antisense)
ABCB11 mRNA FC (5 μM ASO vs. UNT): 1.278 fold change

CO-4051 (antisense eG*eA*e[5mC]*eT*eT*eT*eT*eG*eA*eG*e[5mC]*eA*eA*eG*eG*e[5mC]*eT*eG*eT*eT)
ABCB11 mRNA FC (5 μM ASO vs. UNT): 0.908 fold change

CO-6984 (antisense eT*eG*eA*eG*eG*eT*e[5mC]*eT*eA*eA*eT*eT*eT*eA*eG*eA*eA*eG*eA*e[5mC])
ABCB11 mRNA FC (5 μM ASO vs. UNT): 1.127 fold change

CO-6966 (antisense eA*eT*eG*eA*eA*eT*eG*eG*e[5mC]*eA*eA*eG*eG*eA*eG*eA*eG*eG*eA*eT)
ABCB11 mRNA FC (5 μM ASO vs. UNT): 1.177 fold change

CO-6995 (antisense eG*eT*eG*eA*eG*lG*d[5mC]*dA*lT*d[5mC]*dA*lG*dG*dT*lA*eA*eG*eT*eT*e[5mC])
ABCB11 mRNA FC (5 μM ASO vs. UNT): 1.277 fold change

CO-12750 (antisense eG*eT*eG*eAeG*eG*e[5mC]*eAeT*e[5mC]*eA*eGeG*eT*eA*eAeG*eT*eT*e[5mC])
ABCB11 FC mRNA (5 μM ASO vs. untreated): 1.39 fold change

CO-11227 (antisense eG*eT*lG*eGeA*lG*e[5mC]*eAlA*eA*e[5mC]*lTeA*eG*lG*e[5mC]eA*l[5mC]*eT*eG)
ABCB11 FC mRNA (5 μM ASO vs. untreated): 2.11 fold change

CO-11210 (antisense eG*eT*lG*eG*lAeGl[5mC]*eA*lA*eA*l[5mC]*eT*lA*eGlGe[5mC]*lA*e[5mC]*eT*eG)
ABCB11 FC mRNA (5 μM ASO vs. untreated): 2.79 fold change

CO-7067 (eT*e[5mC]*eT*eG*lG*eA*eA*eA*eA*lT*eA*eA*eT*eG*l[5mC]*e[5mC]*eT*eT*eT*e[5mC]; antisense)
ABCB11 mRNA FC (5 μM ASO vs. UNT): 1.081 fold change

CO-7055 (antisense eT*e[5mC]*eA*e[5mC]*e[5mC]*e[5mC]*e[5mC]*e[5mC]*e[5mC]eT*e[5mC]*eA*e[5mC]*e[5mC]*eT*eT*eG*eG*eT*eT)
ABCB11 mRNA FC (5 μM ASO vs. UNT): 1.498 fold change

CO-7158 (antisense eA*eG*eG*eT*eG*eG*eA*eG*e[5mC]*eA*eA*eA*e[5mC]*eT*eA*eG*eG*e[5mC]*eA*e[5mC])
ABCB11 mRNA FC (5 μM ASO vs. UNT): 1.229 fold change

CO-7201 (eA*eG*eG*eT*eG*dG*dA*eG*d[5mC]*dA*eA*dA*d[5mC]*eT*dA*dG*eG*d[5mC]*dA*e[5mC]*eT*eG*eA*eG; antisense)
ABCB11 mRNA FC (5 μM ASO vs. UNT): 1.253 fold change

CO-6993 (antisense eT*eG*eG*eA*eT*lG*eT*eA*eG*eA*lT*eG*eA*eA*eT*lG*eG*e[5mC]*eA*eA)
ABCB11 mRNA FC (5 μM ASO vs. UNT): 1.209 fold change

CO-11238 (antisense eG*eT*eGeG*lA*eG*e[5mC]*eAeA*lA*e[5mC]*eT*eAeG*lG*e[5mC]*eA*e[5mC]eT*eG)
ABCB11 FC mRNA (5 μM ASO vs. untreated): 1.26 fold change

CO-7020 (antisense eA*eA*eG*eT*eG*dA*dG*lG*d[5mC]*dA*lT*d[5mC]*dA*lG*dG*dT*lA*dA*dG*eT*eT*e[5mC]*e[5mC]*eT)
ABCB11 mRNA FC (5 μM ASO vs. UNT): 1.133 fold change

CO-4027 (antisense eG*eT*eG*eG*eA*eG*eT*eGeT*eT*eT*e[5mC]*eT*eG*eG*eT*eT*eT*eA*eT)
ABCB11 mRNA FC (5 μM ASO vs. UNT): 1.095 fold change

CO-12748 (antisense eG*eTeGeAeGeGe[5mC]*eA*eT*e[5mC]*eA*eG*eG*eTeAeAeGeTeT*e[5mC])
ABCB11 FC mRNA (5 μM ASO vs. untreated): 0.91 fold change

CO-11217 (antisense eG*eTlG*eG*lA*eGl[5mC]*eA*lA*eAl[5mC]eT*lA*eGlG*e[5mC]*lA*e[5mC]eT*eG)
ABCB11 FC mRNA (5 μM ASO vs. untreated): 2.10 fold change

CO-11243 (antisense eG*eT*eGeG*lA*eGe[5mC]*eA*eAlA*e[5mC]*eTeA*eG*lGe[5mC]*eA*e[5mC]eT*eG)
ABCB11 FC mRNA (5 μM ASO vs. untreated): 1.71 fold change

CO-7036 (antisense eG*eT*eA*e[5mC]*eA*eT*eT*eT*eA*eG*eA*eG*eA*e[5mC]*eA*eA*eA*eG*eA*eA)
ABCB11 mRNA FC (5 μM ASO vs. UNT): 1.129 fold change

CO-4035 (antisense eG*eT*eT*e[5mC]*eA*eG*eT*eG*e[5mC]*eT*eT*eT*eA*eG*eA*eA*eT*eG*eA*eT)
ABCB11 mRNA FC (5 μM ASO vs. UNT): 0.926 fold change

CO-7192 (eT*eG*eG*l[5mC]*eG*eT*eT*lA*eT*eT*eA*lA*eT*eT*e[5mC]*lT*eA*e[5mC]*eA*eG; antisense)
ABCB11 mRNA FC (5 μM ASO vs. UNT): 1.591 fold change

CO-11198 (antisense eT*eG*eT*eT*eTeTeG*e[5mC]*eT*eT*eG*eG*eT*e[5mC]eAeA*eG*eA*eG*eG)
ABCB11 FC mRNA (5 μM ASO vs. untreated): 0.97 fold change

CO-4057 (antisense e[5mC]*eA*eG*e[5mC]*eA*e[5mC]*eA*eA*eA*eT*eA*eT*eA*eT*eT*eG*eG*eA*eG*eG)
ABCB11 mRNA FC (5 μM ASO vs. UNT): 1.245 fold change

CO-6994 (antisense eT*eG*eG*eA*lT*eG*eT*eA*eG*lA*eT*eG*eA*eA*lT*eG*eG*e[5mC]*eA*eA)
ABCB11 mRNA FC (5 μM ASO vs. UNT): 1.131 fold change

CO-4062 (antisense eG*eA*e[5mC]*e[5mC]*eA*eA*eT*eG*eT*eT*eG*e[5mC]*e[5mC]*eT*eA*eT*eT*eA*eT*eT)
ABCB11 mRNA FC (5 μM ASO vs. UNT): 1.108 fold change

CO-12756 (antisense eG*eTeG*eAeG*eGe[5mC]*eAeT*e[5mC]eA*eGeG*eTeA*eAeG*eTeT*e[5mC])
ABCB11 FC mRNA (5 μM ASO vs. untreated): 1.33 fold change
